From PubChem BioAssay (NCI) come the findings set out here.

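The compound was tested at five concentrations on cells cultured in 96-well plates, with a 48-hour exposure period. Definition used: TGI = concentration required for complete inhibition of growth.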

Assay in all cases: NCI tumour cell line growth inhibition, 48 h
Test [1] relates to SN12C renal.
In test [2] the test system is OVCAR-4 ovarian.
Test [3] relates to LOX IMVI melanoma.
The test system of test [4] is HOP-62 NSCLC.
Test [5] has as its system TK-10 renal.
Test [6] has as its system T-47D breast.
Test [7] relates to HCT-116 colon.
Test [8] deals with M14 melanoma.
Test [9] relates to COLO 205 colon.
The test system of test [10] is HOP-92 NSCLC.
Test [11] concerns PC-3 prostate.
Test [12] relates to CAKI-1 renal.
Test [13] deals with SR leukemia.
For test [14], the system named is SK-MEL-28 melanoma.
For test [15], the system named is RPMI-8226 leukemia.
For test [16], the system named is NCI-H23 lung.
For test [17], the system named is DU-145 prostate.
For test [18], the system named is ACHN renal.
Test [19] concerns UACC-257 melanoma.
For test [20], the system named is MDA-MB-435.

Consider `O=C(NC(=S)Nc1ccc2c(c1)Sc1ccccc1O2)c1ccc([N+](=O)[O-])cc1`, for which the TGI in test [1], in test [2], in test [3], in test [4], in [5] and in test [6] was over 100 µM in each case. The TGI in test [7], in [8], in test [9], in [10], in test [11] and in test [12] was over 100 µM in each case. The TGI in test [13], in test [14], in test [15], in test [16], in [17] and in [18] was over 100 µM throughout. The TGI in test [19] and in [20] was over 100 µM in each case.
On to `CC1=NN(c2nc(N)nc(CBr)n2)C(C)(C)C1`, for which the TGI in test [1] worked out at 20.5 µM; in [2] it was 20.6 µM; in test [3] it was 1.89 µM; in test [4], 35.1 µM; in [5], 14.9 µM; in test [6] it was 18 µM. The TGI is 17.4 µM in test [7]; 21.2 µM in test [8]; 9.61 µM in [9]; 1.08 µM in test [10]; 18 µM in [11]; 3.06 µM in test [12]. For the same compound, the TGI in test [13] is 17.1 µM; in [14], 27.2 µM; in test [15], 5.61 µM; in [16], 29.9 µM; in [17], 12.1 µM; in [18] it was 13.9 µM. Besides, the TGI is 25.2 µM in test [19] and 27.8 µM in [20].
Consider `CC(C)(C)c1cc(-c2cc(C(C)(C)C)[nH]n2)n[nH]1`, for which the TGI in [1], in test [2], in [3], in [4], in test [5] and in test [6] was over 100 µM each time. Moreover, the TGI in test [7], in test [8], in test [9], in [10], in [11] and in test [12] was over 100 µM in each case. For the same compound, the TGI in test [13], in test [14], in test [15], in [16], in test [17] and in test [18] was over 100 µM each time. The TGI in test [19] and in [20] was over 100 µM in each case.
`CCCCCC1CC=CC(=O)O1` (centres undefined): the TGI in [1] stood at 21.2 µM; in test [2], 13.8 µM; in test [3] it was 25.1 µM; in test [4], 18.5 µM; in test [5], 38.1 µM; in test [6], 62.4 µM. In addition, the TGI in [7] worked out at 5.83 µM; in test [8] it was 26.6 µM; in [9], 16.7 µM; in [10], 37.7 µM; in test [11], 26.3 µM; in [12] it was 20.5 µM. The TGI in test [13] is 31.6 µM; in [14], 18.5 µM; in test [15] it was 12.4 µM; in test [16], 43 µM; in [17], over 100 µM; in [18], 33 µM. The TGI in test [19] came out at 32.9 µM; in [20], 20.2 µM.
As for `C=C1CC2CCCC12C=O` (centres undefined), the TGI in test [1], in test [2], in test [3], in test [4], in [5] and in test [6] was over 10 µM in each case. Besides, the TGI in [7], in [8], in test [9], in [10], in [11] and in test [12] was over 10 µM each time. The TGI in test [13], in test [14], in test [15], in test [16], in test [17] and in test [18] was over 10 µM in each case. Further, the TGI in test [19] and in test [20] was over 10 µM throughout.
Take `CCCCCCCCCCCCCCCCCCNc1ccn(C2OC(COP(=O)(O)OCC3OC(n4cc(C)c(=O)[nH]c4=O)CC3F)C(O)C2O)c(=O)n1` (centres undefined): the TGI came out at 39.7 µM in test [1]; 42.5 µM in test [2]; 14.9 µM in test [3]; 33.1 µM in test [4]; 9.9 µM in test [5]; 44.2 µM in test [6]. Besides, the TGI in [7] was 42.8 µM; in test [8] it was 30.9 µM; in test [9] it was 9.53 µM; in test [10] it was 37.5 µM; in [11], 5.38 µM; in test [12], 16.8 µM. For the same compound, the TGI was 5.14 µM in test [13]; 17.6 µM in test [14]; 12.9 µM in test [15]; 17.9 µM in test [16]; 46.2 µM in test [17]; over 57.1 µM in test [18]. Besides, the figures for the TGI in test [19] and in test [20] were 27.8 µM and 38.9 µM, respectively.
Consider `COc1ccc(OC)c(CSc2ccc(OC)c(OC)c2)c1`, for which the TGI was over 100 µM in test [1]; over 100 µM in [2]; over 100 µM in test [3]; over 100 µM in test [4]; over 100 µM in test [5]; over 30.5 µM in test [6]. Further, the TGI in test [7] is over 100 µM; in [8] it was over 100 µM; in test [9], over 100 µM; in test [10] it was 98.3 µM; in test [11], over 100 µM; in [12], over 100 µM. Moreover, the TGI in test [13], in [14], in test [15], in test [16], in test [17] and in test [18] was over 100 µM each time. Further, the TGI in test [19] and in test [20] was over 100 µM in each case.
In the case of `c1ccc2c(CN3CCN(Cc4c[nH]c5ccccc45)CC3)c[nH]c2c1`, the TGI in [1] is 41.9 µM; in [2], over 100 µM; in [3], 30.6 µM; in test [4], 31.2 µM; in test [5], 29.1 µM; in test [6], 39.1 µM. For the same compound, the TGI in test [7] was determined as 28.6 µM; in test [8], 29.1 µM; in [9], 20.8 µM; in test [10] it was 31.2 µM; in [11] it was 43.7 µM; in test [12], 69.4 µM. Also, the TGI amounted to 44.8 µM in test [13]; 36.9 µM in test [14]; 53.2 µM in test [15]; 42.7 µM in [16]; 40.7 µM in test [17]; 40.6 µM in test [18]. The TGI in test [19] amounted to 27.5 µM; in test [20] it was 32.4 µM.
As to `COC(=O)CCC(C)[C@H]1CCC2C3C(C[C@H](OC(C)=O)[C@@]21C)[C@@]1(C)CCC2(C[C@H]1C[C@H]3OC(C)=O)OOC1(CCCC1)OO2` (some centres undefined), the TGI was over 100 µM in test [1]; 87.6 µM in test [2]; over 100 µM in test [3]; 29.9 µM in test [4]; over 100 µM in test [5]; 75 µM in test [6]. The TGI in [7] was over 100 µM; in test [8], over 100 µM; in test [9] it was over 100 µM; in [10] it was 64.8 µM; in test [11], over 100 µM; in [12] it was 92 µM. Also, the TGI was 15.4 µM in test [13]; over 100 µM in test [14]; 9.44 µM in test [15]; over 100 µM in [16]; over 100 µM in [17]; over 100 µM in [18]. Further, the TGI in test [19] and in [20] was over 100 µM throughout.
For `CC(=O)OC(CN1CCN(c2ccccn2)CC1)Cn1sc2nc(C)cc(C)c2c1=O` (centres undefined), the TGI in [1] turned out to be 37.2 µM; in test [2] it was 55.4 µM; in test [3], 47.4 µM; in test [4] it was 81.1 µM; in test [5], 31.3 µM; in test [6] it was 76.8 µM. The TGI in [7] is 30.5 µM; in test [8], 31.4 µM; in [9], 31.2 µM; in [10], over 100 µM; in test [11], 31.3 µM; in test [12], 37.2 µM. Also, the TGI in [13] was over 100 µM; in test [14], 42.2 µM; in [15], over 100 µM; in test [16], 43 µM; in test [17], 33.9 µM; in test [18], 30 µM. Moreover, the TGI in test [19] was 32 µM; in test [20], 34.5 µM.
For `CC(=O)N(C)c1ccc(N=CN(C)C)cc1`, the TGI in test [1], in [2], in test [3], in test [4], in [5] and in [6] was over 100 µM in each case. Further, the TGI in test [7], in [8], in test [9], in test [10], in test [11] and in test [12] was over 100 µM throughout. Moreover, the TGI in test [13], in test [14], in test [15], in test [16], in [17] and in test [18] was over 100 µM in each case. The TGI in [19] and in [20] was over 100 µM each time.
In the case of `Cn1c(NNc2ccccc2)cc(=O)[nH]c1=O`, the TGI in test [1], in test [2], in test [3], in test [4], in test [5] and in test [6] was over 100 µM in each case. The TGI in test [7], in test [8], in [9], in test [10], in [11] and in test [12] was over 100 µM in each case. The TGI in test [13], in [14], in [15], in test [16], in test [17] and in [18] was over 100 µM throughout. Further, the TGI is over 100 µM in test [19] and 43.1 µM in test [20].
As to `Cc1sc2[nH]c(=O)oc(=O)c2c1C`, the TGI in [1], in [2], in [3], in test [4], in test [5] and in test [6] was over 100 µM in each case. Besides, the TGI in [7], in [8], in test [9], in [10], in test [11] and in test [12] was over 100 µM each time. Besides, the TGI in test [13], in [14], in test [15], in test [16], in test [17] and in test [18] was over 100 µM throughout. Moreover, the TGI in test [19] and in test [20] was over 100 µM each time.
As to `O=Cc1c2n(c3ccccc13)N[C@@](Cc1ccc(O)cc1)(C(=O)O)C2`, the TGI in test [2], in test [3], in [4], in test [5], in test [6] and in [7] was over 100 µM throughout. The TGI in test [8], in test [9], in test [10], in [11], in test [12] and in test [13] was over 100 µM throughout. Also, the TGI in test [14] was over 100 µM; in [15], over 100 µM; in test [16] it was over 100 µM; in [17] it was over 100 µM; in test [18], over 100 µM; in test [19], 86.9 µM. The compound further had a TGI in test [20] of over 100 µM.
